# From patent US10722514B2 (FLX Bio, Inc., priority 2017, dated 2020)
# pIC50: −log10 of the molar value.
# Molecular target: T1, recombinant full-length USP7 (Homo sapiens, UniProt Q93009)
# T1 construct: A 25 μl reaction volume containing recombinant full-length USP7 (62 pM)
# Test: USP7-mediated ubiquitin-rhodamine cleavage assay
# Type: biochemical
# Details: recombinant full-length USP7 62 pM; ubiquitin-rhodamine 100 nM; 30-minute incubation with compound, 1 hour reaction at room temperature; read-out: Potency: USP7 IC50
# Outline: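 Compounds are first incubated with 62 pM enzyme for 30 min at room temperature in pH 7.3 HEPES buffer containing TCEP and BSA. Cleavage of 100 nM ubiquitin-rhodamine proceeds for 1 h before an acid quench, and IC50 is derived from fluorescence.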
# T1 sequence (Q93009 whole entry): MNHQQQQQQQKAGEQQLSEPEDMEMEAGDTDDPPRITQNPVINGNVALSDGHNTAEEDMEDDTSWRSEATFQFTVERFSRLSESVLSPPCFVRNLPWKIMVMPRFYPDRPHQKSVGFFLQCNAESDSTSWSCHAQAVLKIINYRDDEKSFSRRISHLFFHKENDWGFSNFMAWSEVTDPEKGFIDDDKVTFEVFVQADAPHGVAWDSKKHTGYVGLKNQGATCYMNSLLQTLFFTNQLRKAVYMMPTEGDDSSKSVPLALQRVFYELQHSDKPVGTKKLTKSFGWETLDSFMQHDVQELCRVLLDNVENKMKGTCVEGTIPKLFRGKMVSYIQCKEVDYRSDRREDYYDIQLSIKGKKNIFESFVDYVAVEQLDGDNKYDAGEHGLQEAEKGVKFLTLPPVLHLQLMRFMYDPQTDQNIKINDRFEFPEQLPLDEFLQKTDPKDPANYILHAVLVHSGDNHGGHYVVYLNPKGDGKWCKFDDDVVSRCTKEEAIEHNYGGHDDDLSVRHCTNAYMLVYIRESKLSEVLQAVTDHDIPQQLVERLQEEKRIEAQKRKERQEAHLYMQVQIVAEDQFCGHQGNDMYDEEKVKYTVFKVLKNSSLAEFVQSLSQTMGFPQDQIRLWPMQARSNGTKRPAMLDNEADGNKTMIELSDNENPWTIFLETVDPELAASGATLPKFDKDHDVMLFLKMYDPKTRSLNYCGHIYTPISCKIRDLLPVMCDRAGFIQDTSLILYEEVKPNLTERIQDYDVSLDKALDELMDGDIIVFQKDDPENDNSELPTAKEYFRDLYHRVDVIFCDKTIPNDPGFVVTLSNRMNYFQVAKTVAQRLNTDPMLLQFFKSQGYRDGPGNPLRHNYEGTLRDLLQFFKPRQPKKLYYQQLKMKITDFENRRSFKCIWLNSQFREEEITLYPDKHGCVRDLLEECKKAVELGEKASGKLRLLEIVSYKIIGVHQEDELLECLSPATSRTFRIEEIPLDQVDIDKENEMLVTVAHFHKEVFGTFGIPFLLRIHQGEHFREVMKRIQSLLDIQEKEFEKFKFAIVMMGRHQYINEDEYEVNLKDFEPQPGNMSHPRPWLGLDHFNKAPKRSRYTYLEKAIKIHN
row,pIC50,Compound
1,> 6.00,"Cc1cc(Cl)cc(-c2ncnc3cc(CN4C(=O)CC(C)(C)C4=O)sc23)c1O[C@@H]1CNC[C@@H]1F [Example 380, 1-[[4-[5-chloro-2-[(3R,4S)-4-fluoropyrrolidin-3-yl]oxy-3-methyl-phenyl]thieno[3,2-d]pyrimidin-6-yl]methyl]-3,3-dimethyl-pyrrolidine-2,5-dione; 2,2,2-trifluoroacetic acid]"
2,> 6.00,"Cc1cc(Cl)cc(-c2ccnc3cc(CN4C(=O)COC4=O)sc23)c1O[C@H]1CCCNC1 [Example 330, 3-[[7-[5-chloro-3-methyl-2-[[(3S)-3-piperidyl]oxy]phenyl]thieno[3,2-b]pyridin-2-yl]methyl]oxazolidine-2,4-dione; 2,2,2-trifluoroacetic acid]"
3,> 6.00,"Cc1cc(Cl)cc(-c2ccnc3cc(CN4C(=O)C5C(C4=O)C5(C)C)sc23)c1O[C@@H]1CNCC[C@H]1C (stereo partly drawn) [Example 341, 3-[[7-[5-chloro-3-methyl-2-[[(3S,4R)-4-methyl-3-piperidyl]oxy]phenyl]thieno[3,2-b]pyridin-2-yl]methyl]-6,6-dimethyl-3-azabicyclo[3.1.0]hexane-2,4-dione]"
4,> 6.00,"Cc1cc(Cl)cc(-c2ccnc3cc(CN4C(=O)C5CC5C4=O)sc23)c1O[C@@H]1C[C@H]2CN[C@@H]1C2 (stereo partly drawn) [Example 315, 3-[[7-[2-[[(1S,4R,5R)-3-azabicyclo[2.2.1]heptan-5-yl]oxy]-5-chloro-3-methyl-phenyl]thieno[3,2-b]pyridin-2-yl]methyl]-3-azabicyclo[3.1.0]hexane-2,4-dione]"
5,> 6.00,"Cc1cc(Cl)cc(-c2ccnc3cc([C@@H](C)N4C(=O)C5C(C4=O)C5(C)C)sc23)c1OC1CCC(C)NC1 (stereo partly drawn) [Example 397, 3-[(1R)-1-[7-[5-chloro-3-methyl-2-[(6-methyl-3-piperidyl)oxy]phenyl]thieno[3,2-b]pyridin-2-yl]ethyl]-6,6-dimethyl-3-azabicyclo[3.1.0]hexane-2,4-dione; 2,2,2-trifluoroacetic acid]"

# The next lines start with the compound.
row,Compound,pIC50
1,"1-((4-(5-Chloro-2-(((3R,4S)-4-fluoropyrrolidin-3-yl)oxy)-3-methylphenyl)thieno[3,2-d]pyrimidin-6-yl)methyl)pyrrolidine-2,5-dione [Example 96]",> 6.00
2,"Cc1cc(Cl)cc(-c2ccnc3cc(CO)sc23)c1OC1C[C@@H]2C[C@H](C1)N2 (stereo partly drawn) [Example 190, (7-(2-(((1R,5S)-6-Azabicyclo[3.1.1]heptan-3-yl)oxy)-5-chloro-3-methylphenyl)thieno[3,2-b]pyridin-2-yl)methanol]",4.52 to 5.00
3,"Cc1cc(Cl)cc(-c2ccnc3cc(CO)sc23)c1OC1CCC12CNC2 (stereo not drawn) [Example 49, (7-(2-((2-Azaspiro[3.3]heptan-5-yl)oxy)-5-chloro-3-methylphenyl)thieno[3,2-b]pyridin-2-yl)methanol]",5.00 to 6.00
4,"Cc1cc(C#N)cc(-c2ccnc3cc(CN4C(=O)CCC4=O)sc23)c1OC1CCNCC1 [Example 212, 3-(2-((2,5-Dioxopyrrolidin-1-yl)methyl)thieno[3,2-b]pyridin-7-yl)-5-methyl-4-(piperidin-4-yloxy)benzonitrile]",> 6.00
5,"Cc1cc(Cl)cc(-c2ccnc3cc(CN4C(=O)CCC4=O)sc23)c1OC1CCNC1C (stereo not drawn) [Example 118, 1-((7-(5-Chloro-3-methyl-2-((2-methylpyrrolidin-3-yl)oxy)phenyl)thieno[3,2-b]pyridin-2-yl)methyl)pyrrolidine-2,5-dione]",> 6.00
6,"Cc1cc(Cl)cc(-c2ccnc3cc(Cn4c(=O)ccn(CC(F)(F)F)c4=O)sc23)c1OC1CNC1 [Example 61, 3-((7-(2-(Azetidin-3-yloxy)-5-chloro-3-methylphenyl)thieno[3,2-b]pyridin-2-yl)methyl)-1-(2,2,2-trifluoroethyl)pyrimidine-2,4(1H,3H)-dione]",> 6.00
7,"Cc1cc(Cl)cc(-c2ncnc3cc(CN4C(=O)C5CCCC5C4=O)sc23)c1O[C@@H]1CNC[C@@H]1F (stereo partly drawn) [Example 158, 2-((4-(5-Chloro-2-(((3R,4S)-4-fluoropyrrolidin-3-yl)oxy)-3-methylphenyl)thieno[3,2-d]pyrimidin-6-yl)methyl)tetrahydrocyclopenta[c]pyrrole-1,3(2H,3aH)-dione]",> 6.00
8,"Cc1cc(Cl)cc(-c2ccnc3ccsc23)c1OC1CCNCC1 [Example 180, 7-(5-Chloro-3-methyl-2-(piperidin-4-yloxy)phenyl)thieno[3,2-b]pyridine]",4.52 to 5.00
9,"Cc1cc(Cl)cc(-c2ccnc3cc(CN4C(=O)CCC4=O)sc23)c1OC1CN2CCC1CC2 (stereo not drawn) [Example 318, 1-[[7-(5-chloro-3-methyl-2-quinuclidin-3-yloxy-phenyl)thieno[3,2-b]pyridin-2-yl]methyl]pyrrolidine-2,5-dione; 2,2,2-trifluoroacetic acid]",> 6.00
10,"Cc1cc(Cl)cc(-c2ncnc3cc(CN4C(=O)CCCC4=O)sc23)c1O[C@H]1CCCNC1 [Example 260, (S)-1-((4-(5-Chloro-3-methyl-2-(piperidin-3-yloxy)phenyl)thieno[3,2-d]pyrimidin-6-yl)methyl)piperidine-2,6-dione]",> 6.00
11,"Cc1cc(C#N)cc(-c2ccnc3cc(COC4=NS(=O)(=O)CC4)sc23)c1O[C@@H]1CNC[C@@H]1F [Example 115, 3-(2-(((1,1-Dioxido-4,5-dihydroisothiazol-3-yl)oxy)methyl)thieno[3,2-b]pyridin-7-yl)-4-(((3R,4S)-4-fluoropyrrolidin-3-yl)oxy)-5-methylbenzonitrile]",5.00 to 6.00
12,"Cc1cc(Cl)cc(-c2ccnc3cc(Cn4c(=O)ccn(CC(F)(F)F)c4=O)sc23)c1O[C@@H]1CCNC[C@@]1(C)F [Example 276, 3-((7-(5-Chloro-2-(((3R,4R)-3-fluoro-3-methylpiperidin-4-yl)oxy)-3-methylphenyl)thieno[3,2-b]pyridin-2-yl)methyl)-1-(2,2,2-trifluoroethyl)pyrimidine-2,4(1H,3H)-dione]",> 6.00
13,"Cc1cc(Cl)cc(-c2ccnc3cc(CO)sc23)c1OCC1CCCNC1 (stereo not drawn) [Example 189, (7-(5-Chloro-3-methyl-2-(piperidin-3-ylmethoxy)phenyl)thieno[3,2-b]pyridin-2-yl)methanol]",4.52 to 5.00
14,"Cc1cc(Cl)cc(-c2ccnc3ccsc23)c1OC1CCCNCC1 (stereo not drawn) [Example 266, 7-(2-(Azepan-4-yloxy)-5-chloro-3-methylphenyl)thieno[3,2-b]pyridine]",5.00 to 6.00

# Same assay, conditions: recombinant full-length USP7 62 pM; ubiquitin-rhodamine 100 nM; 30-minute incubation, 1 hour reaction at room temperature; read-out: Potency (USP7 IC50)
row,Compound,pIC50
1,"COCC1(N)CC(Oc2c(C)cc(Cl)cc2-c2ccnc3cc(Cn4c(=O)ccn(CC(F)(F)F)c4=O)sc23)C1 (stereo not drawn) [Example 699, 3-[[7-[2-[3-amino-3-(methoxymethyl)cyclobutoxy]-5-chloro-3-methyl-phenyl]thieno[3,2-b]pyridin-2-yl]methyl]-1-(2,2,2-trifluoroethyl)pyrimidine-2,4-dione]",> 6.00

# Same assay, conditions: recombinant full-length USP7 62 pM; ubiquitin-rhodamine 100 nM; 30-minute pre-incubation, 1 hour reaction at room temperature; read-out: Potency (USP7 IC50)
row,pIC50,Compound
1,> 6.00,"Cc1cc(Cl)cc(-c2ccnc3cc(Cn4c(=O)ccn(CC(F)(F)F)c4=O)sc23)c1O[C@@H]1CN(C2CCOC2)C[C@@H]1C (stereo partly drawn) [Example 605, 3-[[7-[5-chloro-3-methyl-2-[(3S,4S)-4-methyl-1-tetrahydrofuran-3-yl-pyrrolidin-3-yl]oxy-phenyl]thieno[3,2-b]pyridin-2-yl]methyl]-1-(2,2,2-trifluoroethyl)pyrimidine-2,4-dione]"
2,> 6.00,"CCn1ccc(=O)n(Cc2cc3ncnc(-c4cc(Cl)cc(C)c4O[C@H]4CCCNC4)c3s2)c1=O [Example 440, 3-[[4-[5-chloro-3-methyl-2-[[(3S)-3-piperidyl]oxy]phenyl]thieno[3,2-d]pyrimidin-6-yl]methyl]-1-ethyl-pyrimidine-2,4-dione; 2,2,2-trifluoroacetic acid]"
3,> 6.00,"Cc1cc(Cl)cc(-c2ncnc3cc(Cn4c(=O)ccn(CC(F)(F)F)c4=O)sc23)c1OC1CC2CNC1C2 (stereo not drawn) [Example 539, 3-[[4-[2-(3-azabicyclo[2.2.1]heptan-5-yloxy)-5-chloro-3-methyl-phenyl]thieno[3,2-d]pyrimidin-6-yl]methyl]-1-(2,2,2-trifluoroethyl)pyrimidine-2,4-dione]"
4,> 6.00,"Cc1cc(Cl)cc(-c2ncnc3cc(Cn4c(=O)ccn(CC(F)(F)F)c4=O)sc23)c1OC1CC2CNC1C2 (stereo not drawn) [Example 526, 3-[[4-[2-(3-azabicyclo[2.2.1]heptan-5-yloxy)-5-chloro-3-methyl-phenyl]thieno[3,2-d]pyrimidin-6-yl]methyl]-1-(2,2,2-trifluoroethyl)pyrimidine-2,4-dione]"
5,> 6.00,"Cc1cc(Cl)cc(-c2ccnc3cc(Cn4c(=O)ccn(C)c4=O)sc23)c1O[C@H]1CCN(C(C)C)C[C@@H]1F [Example 473, 3-[[7-[5-chloro-2-[[(3S,4S)-3-fluoro-1-isopropyl-4-piperidyl]oxy]-3-methyl-phenyl]thieno[3,2-b]pyridin-2-yl]methyl]-1-methyl-pyrimidine-2,4-dione; 2,2,2-trifluoroacetic acid]"
6,> 6.00,"Cc1cc(Cl)cc(-c2ccnc3cc(Cn4c(=O)ccn(C)c4=O)sc23)c1O[C@H]1CCNC[C@]1(C)F [Example 545, 3-[[7-[5-chloro-2-[[(3S,4S)-3-fluoro-3-methyl-4-piperidyl]oxy]-3-methyl-phenyl]thieno[3,2-b]pyridin-2-yl]methyl]-1-methyl-pyrimidine-2,4-dione; 2,2,2-trifluoroacetic acid]"

row,Compound,pIC50
1,"Cc1cc(Cl)cc(-c2ncnc3cc(Cn4c(=O)ccn(C(C)C)c4=O)sc23)c1OC1CC(N)C1 (stereo not drawn) [Example 541, 3-[[4-[2-(3-aminocyclobutoxy)-5-chloro-3-methyl-phenyl]thieno[3,2-d]pyrimidin-6-yl]methyl]-1-isopropyl-pyrimidine-2,4-dione; 2,2,2-trifluoroacetic acid]",> 6.00
